Test results published in article PMC6801405, “Discovery of 3-Arylquinoxaline Derivatives as Potential Anti-Dengue Virus Agents” (International Journal of Molecular Sciences, 2019).
Where two headings read alike, the source gives them in different places.

Experiments:
DENV2 [1] = conditions: DENV2 in VERO-B cells; cited from earlier work
DENV = system: DENV; design: method as in PMID 27750144; conditions: against DENV; cited from earlier work
DENV-2 = system: DENV-2; design: method as in PMID 29031073; conditions: cited from earlier work; for EC50: anti-DENV-2 activity
DENV2 [2] = test: microbe, parasite or virus in culture; format: cell-based, dengue virus; conditions: for SI (selectivity index, CC50/EC50): CC50 Huh-7 / EC50 DENV; for EC50: DENV2, DENV replication, read-out: EC50 (concentration resulting in a 50% inhibition in virus production)
Procedure: Anti-DENV activities were determined by firefly luciferase activity.
Huh-7-DV-Fluc cells were seeded in 24-well plates at a density of 2 × 10^4 cells per well, and treated with the 3-arylquinoxaline compounds at two concentrations (1 and 10 μM) or 0.1% DMSO as control. After three days of incubation, the luciferase activity assay was performed using the Bright-Glo Luciferase assay system (Promega, Madison, WI, USA) according to the manufacturer’s instructions.

[3] = Cytotoxicity assay (XTT method); format: cell-based, Human; conditions: human, mean ± SD; for CC50 at 72 h: uninfected Huh-7 cells, read-out: CC50 (concentration causing a 50% growth inhibition of uninfected Huh-7 cells)
Procedure: (§1) For cytotoxicity tests, run in parallel with antiviral assays, plates at an initial density of 5 × 10^3 cells/well were treated with or without serial dilutions of test compounds. Cell viability was determined after 72 h at 37 °C in a humidified CO2 (5%) atmosphere by the (2,3-bis[2-methyloxy-4-nitro-5-sulfophenyl]-2H-tetrazolium-5-carboxanilide) (XTT) method.

Huh-7 cells [4] = test: Cytotoxicity assay (XTT method); format: cell-based, Human; conditions: Huh-7 cells
Procedure: as §1

DENV2 [5] = system: DENV2; design: method as in PMID 29031073; conditions: cited from earlier work
Huh-7 cells [6] = system: Huh-7 cells; design: method as in PMID 29031073; conditions: cited from earlier work

## O=C(NCc1ccc(-c2ccncc2)cc1)c1nccnc1C(=O)Nc1ccc(F)cc1 [Compound 1, N^2-(4-fluorophenyl)-N^3-[4-(pyridin-4-yl)benzyl]pyrazine-2,3-dicarboxamide]
DENV2 [1]
  EC50: 0.93 µM

## Cc1ccc(Cc2nc(Cc3ccc(C)cc3-c3cc(C)n[nH]3)c3ccccc3n2)cc1 [Compound 2, 4-[4-methyl-2-(3-methyl-1H-pyrazol-5-yl)benzyl)-2-(4-methylbenzyl)quinazoline]
DENV
  EC50: 2.6 µM

## COc1ccc(-c2cc(-c3ccc4cc(F)ccc4n3)n(-c3ccc(S(N)(=O)=O)cc3)n2)cc1 [Compound 5, 4-[5-(6-fluoroquinolin-2-yl)-3-(4-methoxyphenyl)-1H-pyrazol-1-yl]benzenesulfonamide]
DENV-2
  EC50: 0.81 µM
  fold more active anti-DENV-2 activity than ribavirin: approximately 10 fold

## COc1ccc(C(=O)c2nc3ccccc3nc2-c2ccccc2)cc1 [Compound 21b, (4-Methoxyphenyl)(3-phenylquinoxalin-2-yl)methanone]
DENV2 [2]; 10 μM, >32% inhibition of DENV-2 at 10 μM considered as active
  anti-DENV activity in words: highly active
DENV2 [2]; 10 μM, Huh-7-DV-Fluc cells, three days, mean ± SD
  DENV2 % Inhibition at 10 μM: 51.85 ± 3.52%
DENV2 [2]
  SI (selectivity index, CC50/EC50): >61.54
DENV2 [2]; Dengue virus, DENV2, 72 h, 1 μM, Huh-7-DV-Fluc cells, three days, mean ± SD
  inhibition at 1 µM: 42.8 ± 5.13%
DENV2 [2]; Dengue virus, DENV2, 72 h, 10 μM, Huh-7-DV-Fluc cells, three days, mean ± SD
  inhibition at 10 µM: 51%
DENV2 [2]; Dengue virus, mean ± SD
  EC50: 3.25 ± 0.89 µM
[3]; Huh-7 cells, 20 μM, 72 h, XTT, read-out: Huh-7 Cell % viability at 20 μM
  viability at 72 h, 20 µM: 106 ± 3.12%
[3]; Huh-7 cells, 200 μM, 72 h, XTT, read-out: Huh-7 Cell % viability at 200 μM
  viability at 72 h, 200 µM: 95.1 ± 4.32%
[3]
  CC50 at 72 h: > 200 µM
Huh-7 cells [4]
  cytotoxicity in words: non-cytotoxic
other
  melting point: 130 to 132.4 °C

## NC(=O)c1ncn([C@@H]2O[C@H](CO)[C@@H](O)[C@H]2O)n1 [Ribavirin]
DENV2 [2]
  SI (selectivity index, CC50/EC50): 4.47
DENV2 [2]; Dengue virus, mean ± SD
  EC50: 12.6 ± 1.17 µM
[3]
  CC50 at 72 h: 56.3 ± 2.32 µM
DENV2 [5]; 1 μM
  DENV2 % Inhibition at 1 μM: 10.14 ± 1.98%
DENV2 [5]; 10 μM
  DENV2 % Inhibition at 10 μM: 32.53 ± 2.30%
Huh-7 cells [6]; 20 μM
  Huh-7 Cell % viability at 20 μM: 71.37 ± 1.31%
Huh-7 cells [6]; 200 μM
  Huh-7 Cell % viability at 200 μM: 14.36 ± 2.14%
DENV-2
  EC50: 12.6 µM
